Reference: patent publication US7045627B2, “Dichlorinated heterocyclic compounds and methods of synthesis” (R.T. Alamo Ventures I, LLC, priority 2002, dated 2006)

Tested on: PDE1
Assay: PDE1 enzyme inhibition assay
Assay type: biochemical
Conditions: PDE1 partially purified from bovine heart; 25° C.; varying concentrations; 1% DMSO vehicle
Source text: In this example, dichloroflosequinan was subjected to biochemical enzyme assays to determine its respective percent inhibition of a variety of phosphodiesterases (PDE1–PDE6). The methods used have been adapted from those described in the scientific literature, see Hidaka and Asano “Human blood platelet 3′:5′ cyclic nucleotide phosphodiesterase. Isolation of low-Km and high Km phosphodiesterase.” Biochem. Biophys. […] Unhydrolyzed cAMP was bound to AGI-X2 resin, and the remaining [^3H]adenosine in the aqueous phase was quantitated by scintillation counting. • PDE2: PDE2 partially purified from human platelets was used. […] Unhydrolyzed cAMP was bound to AGI-X2 resin, and the remaining [^3H]adenosine in the aqueous phase was quantitated by scintillation counting. • PDE3: PDE3 partially purified from human platelets was used. […] Unhydrolyzed cAMP was bound to AGI-X2 resin, and the remaining [^3H]adenosine in the aqueous phase was quantitated by scintillation counting. • PDE4: PDE4 partially purified from human U-937 pronocytic cells was used. […] Unhydrolyzed cAMP was bound to AGI-X2 resin, and the remaining [^3H]adenosine in the aqueous phase was quantitated by scintillation counting. • PDE5: PDE5 partially purified from human platelets was used. […]

## Cn1cc([S+]([O-])C(Cl)Cl)c(=O)c2ccc(F)cc21 (stereo not shown) [dichloroflosequinan, 3-dichloromethylsulfinyl-7-fluoro-1-methyl-4-quinolone]
  inhibition of PDE1: greater than 50%
